From US9895338B1, “Cobalt-polypyridyl complex for treatment of cancer, a pharmaceutical composition and a kit comprising it” (Macau University of Science and Technology, priority 2016, dated 2018)

What was measured:
[1] = test system: HeLa cells (cervical cancer); assay: MTT cytotoxicity assay, HeLa; type: cell-based; conditions: 72 h
Procedure: (§1) All prepared cobalt-polypyridyl complexes were dissolved in DMSO at a final concentration of 50 mmol/L and stored at −20° C. before use. Cytotoxicity was assessed by using the 3-(4,5-dimethylthiazol-2-yl)-2,5-diphenyltetrazolium bromide (MTT) (5.0 mg/ml) assay as previously described (Wong, V. K. et al., Cell Death Dis, 2013, 4, e720). Briefly, 4×10^3 cells per well were seeded in 96-well plates before drug treatments. After overnight culture, the cells were then exposed to different concentrations of selected compounds (0.039-100 μmol/L) for 72 h. Cells without drug treatment were used as control. Subsequently, MTT (10 μL) solution was added to each well and incubated at 37° C. for 4 h followed by the addition of 100 μL solubilization buffer (10% SDS in 0.01 mol/L HCl) and overnight incubation. A570 nm was then determined in each well on the next day. The percentage of cell viability was calculated using the following formula: Cell viability (%)=Atreated/Acontrol×100. Data were obtained from three independent experiments. Cells include HeLa cells (cervical cancer), MCF-7 (breast cancer), H1299, H1975, A549 and LLC-1 (lung cancer), HepG2 and Hep3B (liver cancer) and LO2 (normal human hepatocytes).

MCF-7 (breast cancer) = assay: MTT cytotoxicity assay, MCF-7; type: cell-based; conditions: MCF-7, MTT, 72 h
Procedure: as §1

H1299 (lung cancer) = assay: MTT cytotoxicity assay, H1299; type: cell-based, human; conditions: 72 h
Procedure: as §1

H1975 (lung cancer) = assay: MTT cytotoxicity assay, H1975; type: cell-based; conditions: 72 h
Procedure: as §1

A549 (lung cancer) = assay: MTT cytotoxicity assay, A549; type: cell-based; conditions: 72 h
Procedure: as §1

LLC-1 (lung cancer) = assay: MTT cytotoxicity assay, LLC-1; type: cell-based; conditions: LLC-1, MTT, 72 h
Procedure: as §1

HepG2 (liver cancer) = assay: MTT cytotoxicity assay, HepG2; type: cell-based; conditions: 72 h
Procedure: as §1

Hep 3B (liver cancer) = assay: MTT cytotoxicity assay, Hep3B; type: cell-based; conditions: 72 h
Procedure: as §1

[2] = test system: LO2 (normal human hepatocytes); assay: MTT cytotoxicity assay, LO2; type: cell-based; conditions: 72 h
Procedure: as §1

[3] = test system: Taxol-sensitive MCF-7 cancer cells; assay: MTT cytotoxicity, taxol-sensitive MCF-7; type: cell-based; conditions: MCF-7, MTT, 72 h
Procedure: as §1, with “experiments.” for “experiments. Cells include HeLa cells (cervical cancer), MCF-7 (breast cancer), H1299, H1975, A549 and LLC-1 (lung cancer), HepG2 and Hep3B (liver cancer) and LO2 (normal human hepatocytes).”

[4] = test system: Taxol-resistant MCF-7 cancer cells; assay: MTT cytotoxicity, taxol-resistant MCF-7; type: cell-based; conditions: for IC50: MCF-7, MTT, 72 h; for Resistant Factor: MCF-7, IC50 taxol-resistant over IC50 taxol-sensitive
Procedure: as §1, with “experiments.” for “experiments. Cells include HeLa cells (cervical cancer), MCF-7 (breast cancer), H1299, H1975, A549 and LLC-1 (lung cancer), HepG2 and Hep3B (liver cancer) and LO2 (normal human hepatocytes).”
(§2) All cells were obtained from the American Type Culture Collection (Rockville, Md., USA) unless otherwise specified. Immortalized wild-type and Atg7-deficient mouse embryonic fibroblasts (MEFs) were provided by Professor Masaaki Komatsu (Juntendo University, School of Medicine, Japan). Taxol-resistant types of A549, MCF-7, HCT-8 cancer cells, cisplatin-resistant SGC7901 cancer cells were purchased from KeyGEN BioTECH, China.

[5] = test system: Taxol-sensitive HCT8 cancer cells; assay: MTT cytotoxicity, taxol-sensitive HCT8; type: cell-based; conditions: 72 h
Procedure: as §1, with “experiments.” for “experiments. Cells include HeLa cells (cervical cancer), MCF-7 (breast cancer), H1299, H1975, A549 and LLC-1 (lung cancer), HepG2 and Hep3B (liver cancer) and LO2 (normal human hepatocytes).”

[6] = test system: Taxol-resistant HCT8 cancer cells; assay: MTT cytotoxicity, taxol-resistant HCT8; type: cell-based; conditions: for IC50: HCT8, MTT, 72 h; for Resistant Factor: HCT8, IC50 taxol-resistant over IC50 taxol-sensitive
Procedure: as §1, with “experiments.” for “experiments. Cells include HeLa cells (cervical cancer), MCF-7 (breast cancer), H1299, H1975, A549 and LLC-1 (lung cancer), HepG2 and Hep3B (liver cancer) and LO2 (normal human hepatocytes).”
as §2

[7] = test system: Taxol-sensitive A549 cancer cells; assay: MTT cytotoxicity, taxol-sensitive A549; type: cell-based; conditions: 72 h
Procedure: as §1, with “experiments.” for “experiments. Cells include HeLa cells (cervical cancer), MCF-7 (breast cancer), H1299, H1975, A549 and LLC-1 (lung cancer), HepG2 and Hep3B (liver cancer) and LO2 (normal human hepatocytes).”

[8] = test system: Taxol-resistant A549 cancer cells; assay: MTT cytotoxicity, taxol-resistant A549; type: cell-based; conditions: for IC50: A549, MTT, 72 h; for Resistant Factor: A549, IC50 taxol-resistant over IC50 taxol-sensitive
Procedure: as §1, with “experiments.” for “experiments. Cells include HeLa cells (cervical cancer), MCF-7 (breast cancer), H1299, H1975, A549 and LLC-1 (lung cancer), HepG2 and Hep3B (liver cancer) and LO2 (normal human hepatocytes).”
as §2

[9] = test system: cisplatin-sensitive A2780 ovarian cancer cells; assay: MTT cytotoxicity, cisplatin-sensitive A2780; type: cell-based; conditions: 72 h
Procedure: as §1, with “experiments.” for “experiments. Cells include HeLa cells (cervical cancer), MCF-7 (breast cancer), H1299, H1975, A549 and LLC-1 (lung cancer), HepG2 and Hep3B (liver cancer) and LO2 (normal human hepatocytes).”
(§3) Cisplatin-sensitive or -resistant A2780, OV2008 and C13 cancer cells were provided by Prof. Benjamin Tsang (Department of Obstetrics and Gynecology and Department of Cellular and Molecular Medicine, University of Ottawa, Canada). HCT116 p53^+/+ and p53^−/− isogenic human colon cancer cells were provided by Professor Bert Vogelstein (Ludwig Center at Johns Hopkins, Howard Hughes Medical Institute, USA). All media were supplemented with 10% fetal bovine serum and the antibiotics penicillin (50 U/ml) and streptomycin (50 μg/ml; Invitrogen, Paisley, Scotland, UK). All cell cultures were incubated at 37° C. in a 5% humidified CO2 incubator.

[10] = test system: cisplatin-resistant A2780 ovarian cancer cells; assay: MTT cytotoxicity, cisplatin-resistant A2780; type: cell-based; conditions: for IC50: A2780, MTT, 72 h; for Resistant Factor: A2780, cisplatin-resistant over cisplatin-sensitive
Procedure: as §1, with “experiments.” for “experiments. Cells include HeLa cells (cervical cancer), MCF-7 (breast cancer), H1299, H1975, A549 and LLC-1 (lung cancer), HepG2 and Hep3B (liver cancer) and LO2 (normal human hepatocytes).”
as §3

[11] = test system: cisplatin-sensitive SGC-7901 gastric cancer cells; assay: MTT cytotoxicity, cisplatin-sensitive SGC-7901; type: cell-based; conditions: SGC-7901, MTT, 72 h
Procedure: as §1, with “experiments.” for “experiments. Cells include HeLa cells (cervical cancer), MCF-7 (breast cancer), H1299, H1975, A549 and LLC-1 (lung cancer), HepG2 and Hep3B (liver cancer) and LO2 (normal human hepatocytes).”

[12] = test system: cisplatin-resistant SGC-7901 gastric cancer cells; assay: MTT cytotoxicity, cisplatin-resistant SGC-7901; type: cell-based; conditions: for IC50: SGC-7901, MTT, 72 h; for Resistant Factor: SGC-7901, cisplatin-resistant over cisplatin-sensitive
Procedure: as §1, with “experiments.” for “experiments. Cells include HeLa cells (cervical cancer), MCF-7 (breast cancer), H1299, H1975, A549 and LLC-1 (lung cancer), HepG2 and Hep3B (liver cancer) and LO2 (normal human hepatocytes).”
as §2

[13] = test system: OV2008 cervical cancer cells; assay: MTT cytotoxicity, OV2008 (cisplatin-sensitive); type: cell-based; conditions: 72 h
Procedure: as §1, with “experiments.” for “experiments. Cells include HeLa cells (cervical cancer), MCF-7 (breast cancer), H1299, H1975, A549 and LLC-1 (lung cancer), HepG2 and Hep3B (liver cancer) and LO2 (normal human hepatocytes).”
as §3

[14] = test system: OV2008/C13 cervical cancer cells; assay: MTT cytotoxicity, OV2008/C13 (cisplatin-resistant); type: cell-based; conditions: for IC50: OV2008/C13, MTT, 72 h; for Resistant Factor: OV2008/C13 over OV2008
Procedure: as §1, with “experiments.” for “experiments. Cells include HeLa cells (cervical cancer), MCF-7 (breast cancer), H1299, H1975, A549 and LLC-1 (lung cancer), HepG2 and Hep3B (liver cancer) and LO2 (normal human hepatocytes).”
as §3

[15] = test system: HCT116 p53^+/+ colon cancer cells; assay: MTT cytotoxicity, HCT116 p53+/+; type: cell-based, human; conditions: 72 h
Procedure: as §1, with “experiments.” for “experiments. Cells include HeLa cells (cervical cancer), MCF-7 (breast cancer), H1299, H1975, A549 and LLC-1 (lung cancer), HepG2 and Hep3B (liver cancer) and LO2 (normal human hepatocytes).”
as §3

[16] = test system: HCT116 p53^−/− colon cancer cells; assay: MTT cytotoxicity, HCT116 p53-/-; type: cell-based, human; conditions: for Resistant Factor: HCT116 p53^−/− over HCT116 p53^+/+; for IC50: MTT, 72 h
Procedure: as §1, with “experiments.” for “experiments. Cells include HeLa cells (cervical cancer), MCF-7 (breast cancer), H1299, H1975, A549 and LLC-1 (lung cancer), HepG2 and Hep3B (liver cancer) and LO2 (normal human hepatocytes).”
as §3

Row | Structure (SMILES) | IC50 [1] [µM] | IC50 (MCF-7 (breast cancer)) [µM] | IC50 (H1299 (lung cancer)) [µM] | IC50 (H1975 (lung cancer)) [µM] | IC50 (A549 (lung cancer)) [µM] | IC50 (LLC-1 (lung cancer)) [µM] | IC50 (HepG2 (liver cancer)) [µM] | IC50 (Hep 3B (liver cancer)) [µM] | IC50 [2] [µM] | IC50 [3] [µM] | IC50 [4] [µM] | Resistant Factor [4] | IC50 [5] [µM] | IC50 [6] [µM] | Resistant Factor [6] | IC50 [7] [µM] | IC50 [8] [µM] | Resistant Factor [8] | IC50 [9] [µM] | IC50 [10] [µM] | other results
1 | F[P-](F)(F)(F)(F)F.F[P-](F)(F)(F)(F)F.F[P-](F)(F)(F)(F)F.[Co+3].c1ccc(-c2ccccn2)nc1.c1ccc(-c2ccccn2)nc1.c1ccc(-c2ccccn2)nc1 [complex (VI), [Co^III(N^N)3](PF6)3] | 35.9 | 10.1 | 14.9 | 21 | 37.2 | 29.2 | 22.7 | 13.8 | 43.7 | 8.02 | 5.01 | 0.62 | 18.5 | 10.2 | 0.55 | 51.7 | 11.1 | 0.21 | 55 | 54.1 | Resistant Factor [10]: 0.98; IC50 [11]: 41.1 µM; IC50 [12]: 41.7 µM; Resistant Factor [12]: 1.01; IC50 [13]: 42.5 µM; IC50 [14]: 37.4 µM; Resistant Factor [14]: 0.88; IC50 [15]: 45.1 µM; Resistant Factor [16]: 1.00; IC50 [16]: 45 µM
2 | COc1ccnc(-c2cc(OC)ccn2)c1.COc1ccnc(-c2cc(OC)ccn2)c1.COc1ccnc(-c2cc(OC)ccn2)c1.F[P-](F)(F)(F)(F)F.F[P-](F)(F)(F)(F)F.F[P-](F)(F)(F)(F)F.[Co+3] [complex (VII), [Co^III(4,4′-(OMe)2-Bpy)3](PF6)3] | 12.8 | 10.8 | 8.71 | 9.31 | 18.6 | 8.71 | 15.4 | 5.33 | 20.6 | 9.45 | 6.28 | 0.66 | 4.3 | 1.04 | 0.24 | 15 | 2.85 | 0.19 | 24 | 27 | Resistant Factor [10]: 1.13; IC50 [11]: 21.6 µM; IC50 [12]: 20.7 µM; Resistant Factor [12]: 0.96; IC50 [13]: 14 µM; IC50 [14]: 20.3 µM; Resistant Factor [14]: 1.45; IC50 [15]: 77.8 µM; Resistant Factor [16]: 0.53; IC50 [16]: 41.3 µM
